# Assay results published in patent US20220281825A1 (priority 2016, published 2022).
# Legend:
# JUNV-p = assay: organism not typed; assay type: cell-based, Junin (JUNV); conditions: Vero, 24 h, read-out: JUNV-p EC50 (nM)
# MACV-p = assay: organism not typed; assay type: cell-based, Machupo (MACV); conditions: Vero, 24 h, read-out: MACV-p EC50 (nM)
# TCRV-p = assay: organism not typed; assay type: cell-based; conditions: Vero, 24 h, read-out: TCRV-p EC50 (nM)
# LASV-p = assay: organism not typed; assay type: cell-based, Lassa (LASV); conditions: Vero, 24 h, read-out: LASV-p EC50 (nM)
# in vitro = conditions: African green monkey
SMILES,EC50 (JUNV-p) [nM],EC50 (MACV-p) [nM],EC50 (TCRV-p) [nM],EC50 (LASV-p) [nM],CC50 (in vitro) [nM]
"COc1ccc(-n2cnc3ccc(-c4cccc(C(C)C)c4)cc32)cc1 [Example A1, 1-(4-Methoxyphenyl)-6-[3-(propan-2-yl)phenyl]-1H-1,3-benzodiazole]",> 100,> 100,> 100,31.7,12900
"COc1ccc(-n2cnc3ccc(-c4ccc(C(C)C)cc4)cc32)cc1 [Example A2, 1-(4-methoxyphenyl)-6-[4-(propan-2-yl)phenyl]-1H-1,3-benzodiazole]",> 100,> 100,> 100,6.6,25600
"COc1ccc(-c2ccc3ncn(-c4ccc(OC)cc4)c3c2)cc1 [Example A3, 1,6-bis(4-methoxyphenyl)-1H-1,3-benzodiazole]",> 25,> 25,> 25,7.6,< 300
"COc1ccc(-n2cnc3ccc(-c4ccc(C#N)cc4)cc32)cc1 [Example A4, 4-[1-(4-methoxyphenyl)-1H-1,3-benzodiazol-6-yl]benzonitrile]",> 25,> 25,> 25,> 25,< 300
"COc1ccc(-n2cnc3ccc(-c4ccccc4OC)cc32)cc1 [Example A5, 6-(2-methoxyphenyl)-1-(4-methoxyphenyl)-1H-1,3-benzodiazole]",> 25,> 25,> 25,> 25,< 300
"COc1ccc(-n2cnc3ccc(-c4cccc(OC)c4)cc32)cc1 [Example A6, 6-(3-methoxyphenyl)-1-(4-methoxyphenyl)-1H-1,3-benzodiazole]",> 25,> 25,> 25,> 25,9720
"COc1ccc(-n2cnc3ccc(Cc4ccc(C)cc4)cc32)cc1 [Example A9, 1-(4-methoxyphenyl)-6-[(4-methylphenyl)methyl]-1H-1,3-benzodiazole]",,,,> 100,
"COc1ccc(-n2cnc3ccc(-c4ccc(S(C)(=O)=O)cc4)cc32)cc1 [Example A11, 6-(4-methanesulfonylphenyl)-1-(4-methoxyphenyl)-1H-1,3-benzodiazole]",> 25,> 25,> 25,> 25,
"COc1ccc(-n2cnc3c(-c4ccc(C(C)C)cc4)cccc32)cc1 [Example A19, 1-(4-methoxyphenyl)-4-[4-(propan-2-yl)phenyl]-1H-1,3-benzodiazole]",,,,> 100,
"COc1ccc(-n2cnc3c(-c4cccc(C(C)C)c4)cccc32)cc1 [Example A20, 1-(4-methoxyphenyl)-4-[3-(propan-2-yl)phenyl]-1H-1,3-benzodiazole]",,,,> 100,
"COc1ccccc1-n1cnc2ccc(-c3ccc(C(C)(C)O)cc3)cc21 [Example A22, 2-{4-[1-(2-methoxyphenyl)-1H-1,3-benzodiazol-6-yl]phenyl}propan-2-ol]",> 25,> 25,> 25,> 25,
"COc1cccc(-n2cnc3ccc(-c4ccc(C(C)(C)O)cc4)cc32)c1 [Example A23, 2-{4-[1-(3-methoxyphenyl)-1H-1,3-benzodiazol-6-yl]phenyl}propan-2-ol]",> 25,> 25,> 25,> 25,
"CC(=O)c1ccc(-c2ccc3ncn(-c4ccc5[nH]ccc5c4)c3c2)cc1 [Example A28, 1-{4-[1-(1H-indol-5-yl)-1H-1,3-benzodiazol-6-yl]phenyl}ethan-1-one]",7.29,> 25,> 25,11,
"c1cc2cc(-c3ccc4ncn(-c5ccc6[nH]ccc6c5)c4c3)ccc2[nH]1 [Example A29, 1,6-bis(1H-indol-5-yl)-1H-1,3-benzodiazole]",6.96,11.1,15.2,0.53,
"CC(C)Oc1ccc(-n2cnc3cnc(-c4ccc(C(C)(C)O)cc4)cc32)cc1 [Example B5, 2-(4-{1-[4-(propan-2-yloxy)phenyl]-1H-imidazo[4,5-c]pyridin-6-yl}phenyl)propan-2-ol]",13.4,> 25,> 25,> 25,
"CC(=O)c1ccc(-c2cc3c(cn2)ncn3-c2ccc(OC(C)C)cc2)cc1 [Example B8, 1-(4-{1-[4-(propan-2-yloxy)phenyl]-1H-imidazo[4,5-c]pyridin-6-yl}phenyl)ethan-1-one]",> 25,> 25,> 25,> 25,
"CC(C)Oc1ccc(-c2cnc3ccc(-c4ccc(N)nc4)cn23)cc1 [Example C14, 5-{3-[4-(propan-2-yloxy)phenyl]imidazo[1,2-a]pyridin-6-yl}pyridin-2-amine]",> 25,> 25,> 25,> 25,

SMILES,EC50 (JUNV-p) [nM],EC50 (MACV-p) [nM],EC50 (TCRV-p) [nM],EC50 (LASV-p) [nM],CC50 (in vitro) [nM]
"CC(C)Oc1ccc(-c2cnc3ccc(-c4ccc(C(N)=O)cc4)cn23)cc1 [Example C16, 4-{3-[4-(propan-2-yloxy)phenyl]imidazo[1,2-a]pyridin-6-yl}benzamide]",> 25,> 25,> 25,> 25,
"CC(C)Oc1ccc(-c2cnc3ccc(-c4ccc(OC(C)C)cc4F)cn23)cc1 [Example C23, 6-[2-fluoro-4-(propan-2-yloxy)phenyl]-3-[4-(propan-2-yloxy)phenyl]imidazo[1,2-a]pyridine]",> 25,> 25,> 25,> 25,
"CC(C)Oc1ccc(-c2cnc3ccc(-c4ccc(OCCN5CCOCC5)cc4)cn23)cc1 [Example C25, 4-[2-(4-{3-[4-(propan-2-yloxy)phenyl]imidazo[1,2-a]pyridin-6-yl}phenoxy)ethyl]morpholine]",≥ 25,> 25,> 25,> 25,
"CC(C)Oc1ccc(-c2cnc3ccc(-c4ccc(C5(O)CNC5)cc4)cn23)cc1 [Example C29, 3-(4-{3-[4-(propan-2-yloxy)phenyl]imidazo[1,2-a]pyridin-6-yl}phenyl)azetidin-3-ol]",> 25,> 25,> 25,> 25,
"CC(C)Oc1ccc(-c2ccc3ncc(-c4ccc5c(c4)CCO5)n3c2)cc1 [Example C34, 3-(2,3-dihydro-1-benzofuran-5-yl)-6-[4-(propan-2-yloxy)phenyl]imidazo[1,2-a]pyridine]",3.68,25.1,16.5,4.73,
"CC(C)Oc1ccc(-c2ccc3ncc(-c4ccc(C(F)F)cc4)n3c2)cc1 [Example C36, 3-[4-(difluoromethyl)phenyl]-6-[4-(propan-2-yloxy)phenyl]imidazo[1,2-a]pyridine]",23.2,> 25,> 25,8.18,
"CC(C)Oc1ccc(-c2ccc3ncc(-c4ccc(OCCN5CCOCC5)cc4)n3c2)cc1 [Example C43, 4-[2-(4-{6-[4-(propan-2-yloxy)phenyl]imidazo[1,2-a]pyridin-3-yl}phenoxy)ethyl]morpholine]",> 25,> 25,> 25,> 25,
"CC(C)Oc1ccc(-c2ccc3ncc(-c4ccc(C(=O)O)cc4)n3c2)cc1 [Example C45, 4-{6-[4-(propan-2-yloxy)phenyl]imidazo[1,2-a]pyridin-3-yl}benzoic acid]",> 25,> 25,> 25,> 25,
"CC(C)Oc1ccc(-c2ccc3cnn(-c4ccc(OC(C)C)cc4)c3c2)cc1 [Example D1, 1,6-bis[4-(propan-2-yloxy)phenyl]-1H-indazole]",14,> 25,> 25,> 25,
"CC(C)Oc1ccc(-c2ccc3ccn(-c4ccc(OC(C)C)cc4)c3c2)cc1 [Example D4, 1,6-bis[4-(propan-2-yloxy)phenyl]-1H-indole]",8.1,16.9,> 25,> 25,
"CC(C)Oc1ccc(-c2ccc3occ(-c4ccc(OC(C)C)cc4)c3c2)cc1 [Example D8, 3,5-bis[4-(propan-2-yloxy)phenyl]-1-benzofuran]",> 25,> 25,> 25,> 25,
"CC(C)Oc1ccc(-c2coc3ccc(-c4ccc5[nH]ccc5c4)cc23)cc1 [Example D9, 5-{3-[4-(propan-2-yloxy)phenyl]-1-benzofuran-5-yl}-1H-indole]",> 25,> 25,> 25,> 25,
"CC(=O)c1ccc(-c2cnc3cnc(-c4ccc(OC(C)C)cc4)cn23)cc1 [Example D14, 1-(4-{6-[4-(propan-2-yloxy)phenyl]imidazo[1,2-a]pyrazin-3-yl}phenyl)ethan-1-one]",13.5,25,20.2,6.77,
"CC(C)Oc1ccc(-c2ccc3cnc(-c4ccc(OC(C)C)cc4)n3c2)cc1 [Example D17, 3,6-bis[4-(propan-2-yloxy)phenyl]imidazo[1,5-a]pyridine]",> 25,> 25,> 25,> 25,
"CCOC(=O)c1nc2ccc(-c3ccc(OC(C)C)cc3)cn2c1-c1ccc(OC(C)C)cc1 [Example D20, ethyl 3,6-bis[4-(propan-2-yloxy)phenyl]imidazo[1,2-a]pyridine-2-carboxylate]",> 25,> 25,> 25,> 25,
"CC(C)Oc1ccc(-c2ccc3nc(C(=O)O)c(-c4ccc(OC(C)C)cc4)n3c2)cc1 [Example D21, 3,6-bis[4-(propan-2-yloxy)phenyl]imidazo[1,2-a]pyridine-2-carboxylic acid]",> 25,> 25,> 25,> 25,
